Data set [1] has as its target T1, nanobit-large-bit-ERK2 and nanobit-small-bit-PEA15 in WM793 cells (Homo sapiens, UniProt P28482).
T1 construct: expressed in transfected cells
Nature of the data set: NanoBiT assay. The format is cell-based. Conditions: WM793 nanobit stable cell line, overnight incubation; read-out: NanoBiT qualified absolute AC50. Here is the method:
(§1) Cancer cell media was prepared by adding 500 mL of RPMI (ThermoFisher cat ##22400-089) and 10% Fetal Bovine Serum (Gibco) for WM793 cells (ATCC Cat #CRL-2806, RRID: CVCL 8787) and F12K (Thermo Fisher cat #21127-022, 500 mL; or 21127-030, 10×500 mL)+10% FBS for PC3 (ATCC CRL-1435) cells. The entire media with supplements was filter sterilized through a 0.4 μm bottle top filter system. Cancer cell lines were detached from traditional cell culture flasks by washing three times with 1×PBS and adding an appropriate amount of 0.25% TrypLE™ Express Enzyme (1×), no phenol red (ThermoFisher cat #12604013) to create a thin layer over the cells. Trypsin was neutralized with media containing serum and proceeded to count the cells.
A nanobit stable cell line was generated using WM793 cells with nanobit-large-bit-ERK2 and nanobit-small-bit-PEA15. […] In a biological safety cabinet, cells were seeded using a sterilized small stainless steel tipped cassette on a Multi-drop Combi. Between different cell lines, the tubing of the cassette was flushed with 1× sterile PBS for 10 s. Alternatively, cells can be seeded using a Multi-flow located within a Hepa filtered robotics room using either a sterilized small sapphire jewel tipped cassette and the peristatic pump, or the attached syringe pump, depending on volume of plates per cell line needed. The plates were placed in an incubator set at 37° C., with 5% CO2 and 95% relative humidity. A 10-point, 3-fold serial dilution of compounds was prepared in 100% DMSO on a liquid handling robot with a 10 mM top concentration. 90 nl/well was dispensed in three assay plates/1 compound source plate, with the highest concentration at 30 μM. After addition of compound was complete, the plates were placed into an incubator at 37° C., with 5% CO2 and 95% relative humidity for overnight. Luminescence was captured on a plate luminometer such as an Envision or View Lux to measure Day 0 time point both select cell lines. LUM plus, gain 3500, 0.1 s and focal height 12.5 [mm] on PheraStar reader. The raw data was extracted from the instrument and normalized all fields containing test compounds to the average of all wells containing DMSO alone as neutral control. From this value, the percent growth inhibition was calculated for each compound. Dose response curves and inhibitory IC50s were generated by graphing the normalized data values against the compound concentration using either a program such as GraphPad™ or Excel Fit.

Data set [2] concerns the target T2, ERK2[2-360(p-T185/p-Y187)]-Avi (Homo sapiens, UniProt P28482).
T2 construct: 400 pM ERK2[2-360(p-T185/p-Y187)]-Avi was added to the plate
As to the kind of experiment: Biochemical assay (HTRF competition assay). Conditions: HTRF competition with Example 15 probe, overnight at RT; read-out: Biochemical qualified AC50. The format is binding. Here is the method: The competition assays were performed at RT in a 384-well white polystyrene, flat bottom plate (Greiner #784075) using a final reaction volume of 15 μL and the following assay buffer conditions: 50 mM MOPS, pH 7.2, 10 mM MgCl2, 0.5 mM TCEP, 0.01% Triton-X-100. 75 nL of a 10 mM compound solution in DMSO or 100% DMSO (12 point titration, final concentration: 50 μM-300 pM; final DMSO: 0.5%) was added using an acoustic liquid handler (Echo, Beckman Coulter) to wells containing 7.5 μL of 1-(6-((R)-3-(1-(5-chloro-1-((tetrahydro-2H-pyran-4-yl)methyl)-1H-indole-3-carbonyl)-4-(4-fluorophenyl)piperidine-4-carboxamido)pyrrolidin-1-yl)-6-oxohexyl)-3,3-dimethyl-5-sulfo-2-((1E,3E)-5-((E)-1,3,3-trimethyl-5-sulfoindolin-2-ylidene)penta-1,3-dien-1-yl)-3H-indol-1-ium (Example 15); 7.5 μL 400 pM SA-Tb (Cisbio, 610SATLB) and 400 pM ERK2[2-360(p-T185/p-Y187)]-Avi was added to the plate and incubated overnight at RT. HTRF signal was measured using a microplate reader (PheraStar, BMG Labtech) with excitation and emission wavelengths of […], respectively. The inhibitor dose-response curves were analyzed from the HTRF ratio signal using normalized IC50 regression curve fitting with control-based normalization.
For orientation: Time-resolved FRET reads energy transfer from a long-lived donor to a nearby acceptor.

The test system of data set [3] is WM793 BRAFV600E tumor xenograft. As to the kind of experiment: Anti-tumor activity and tolerability in WM793 BRAFV600E tumor xenograft in nude rats. The format is in vivo. Conditions: per os. Here is the method:
Female RNU rats (Charles River, 4-5 weeks of age) were acclimatized into animal facility and pretreated with 100 mg/kg cyclophosphamide IP at 10 ml/kg 24 hrs prior to tumor implant. Nude rats were subcutaneously implanted on the right side with WM793 BRAF^V600E tumors via fragments (20-40 mg) from a previously passaged tumor with sterile techniques under isoflurane anesthesia using a 10 gauge trocar (n=4/group). Body weights were monitored at least once a week and calculated as (BWcurrent−BWinitial)/(BWinitial)×100%. After 1-3 weeks when palpable tumors developed, tumor volumes were monitored at least once a week by caliper measurements. Tumor volumes (mm^3) were calculated as (length×width×width)/2. Rats were randomized and selected for study based on tumor sizes (100-200 mm^3) and appropriate health conditions. Compounds of Formula I, formulated in either 20% HPBCD at 5 mg/ml or 20% HPBCD at 2.5 mg/ml were dosed at 10 ml/kg per os. Animals were euthanized based on poor health conditions, tumor volumes exceeded 2500 mm^3, or have reached the end of study. Regression % was calculated by 100×ΔT/Tinitial if ΔT<0, in which ΔT is the change of tumor volume.

In data set [4] the test system is WM793 cells. Nature of the data set: Cell proliferation assay (CellTiter-Glo). Conditions: 3 d, read-out: Cell proliferation qualified AC50. The format is cell-based. Here is the method: as §1
After counting the cells, the concentration of the cell solution was adjusted to seed a total of 750 cells per well in 50 μL of complete media into 384-well tissue culture treated plates. In a biological safety cabinet, cells were seeded using a sterilized small stainless steel tipped cassette on a Multi-drop Combi. Between different cell lines, the tubing of the cassette was flushed with 1× sterile PBS for 10 seconds. Alternatively, cells can be seeded using a Multi-flow located within a Hepa filtered robotics room using either a sterilized small sapphire jewel tipped cassette and the peristatic pump, or the attached syringe pump, depending on volume of plates per cell line needed. The plates were placed in an incubator set at 37° C., with 5% CO2 and 95% relative humidity. A 10-point, 3-fold serial dilutions of compounds in 100% DMSO was prepared on a liquid handling robot with a 10 mM top concentration. 100 nL/well in three assay plates/1 compound was dispensed to source plate, with the highest concentration at 20 μM. After addition of compound was complete, plates were placed into an incubator at 37° C., with 5% CO2 and 95% relative humidity for 3 d. An adequate volume of CellTiter-Glo® (Promega #G7571) detection reagent was pre-warmed to RT or in a 37° C. H2O bath. 25 μL of the reagent was added to each well using either a Multi-drop Combi or MultiFlo and incubate at RT for at least 15 min. Luminesce was captured on a plate luminometer such as an Envision or View Lux to measure Day 0 time point both select cell lines. LUM plus, gain 3500, 0.1 s and focal height 12.5 mm on PheraStar reader. At Day 3, an adequate volume of CellTiter-Glo® detection reagent was pre-warmed at RT or in a 37° C. H2O bath. A total of 25 μL of the reagent was added to each well using either a Multi-drop Combi or MultiFlo and incubate at RT for at least 15 min. Luminesce was captured on a plate luminometer such as an Envision or View Lux to measure Day 3 time point both select cell lines. LUM plus, gain 3500, 0.1 s and focal height 12.5 mm on PheraStar reader. Raw data was extracted from the instrument and all fields containing test compounds were normalized to the average of all wells containing DMSO alone from Day 3 as neutral control and Day 0 starting numbers. From this value, percent growth inhibition of each compound was calculated. Dose response curves and growth inhibitory IC50s were generated by graphing the normalized data values against the compound concentration using a program such as GraphPad™ or Excel Fit.

Where two headings read alike, the source gives them in different places.

The record followed here is US20250092036A1, “COMPOUNDS AND COMPOSITIONS FOR MODULATING THE ACTIVITY OF ERK” (Novartis AG, priority 2023, published 2025).

T2 sequence (P28482 2-360 limits assumed): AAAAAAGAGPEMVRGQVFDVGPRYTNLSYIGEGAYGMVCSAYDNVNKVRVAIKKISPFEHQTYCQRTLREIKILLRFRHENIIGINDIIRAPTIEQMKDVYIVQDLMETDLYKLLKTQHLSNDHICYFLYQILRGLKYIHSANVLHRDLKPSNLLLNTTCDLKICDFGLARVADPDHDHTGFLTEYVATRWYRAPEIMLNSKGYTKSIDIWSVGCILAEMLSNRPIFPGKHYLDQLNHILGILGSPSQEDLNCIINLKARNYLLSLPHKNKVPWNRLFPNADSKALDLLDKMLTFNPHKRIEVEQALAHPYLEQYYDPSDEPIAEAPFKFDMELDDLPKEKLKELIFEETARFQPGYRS
T1 sequence (P28482 whole entry): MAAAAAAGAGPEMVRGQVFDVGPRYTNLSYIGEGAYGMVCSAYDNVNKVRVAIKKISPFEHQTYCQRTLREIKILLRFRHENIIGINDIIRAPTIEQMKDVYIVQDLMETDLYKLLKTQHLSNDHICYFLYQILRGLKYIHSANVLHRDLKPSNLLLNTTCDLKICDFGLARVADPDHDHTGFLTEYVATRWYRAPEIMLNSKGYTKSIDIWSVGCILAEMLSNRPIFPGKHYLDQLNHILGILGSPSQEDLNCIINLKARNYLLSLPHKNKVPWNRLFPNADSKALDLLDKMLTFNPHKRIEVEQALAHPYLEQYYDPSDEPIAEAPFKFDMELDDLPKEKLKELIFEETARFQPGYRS

`CC(C)OC1CCC(C2CN(C(=O)N3CC[C@@](C(=O)N[C@H]4CC[C@H](C(=O)O)C[C@@H]4C)(c4ccc(F)cc4)C[C@@H]3C)c3cc(F)ccc32)CC1` (stereo partly drawn) [Example 4, (1S,3S,4S)-4-((2S,4S)-1-(6-fluoro-3-((1R,4S)-4-isopropoxycyclohexyl)indoline-1-carbonyl)-4-(4-fluorphenyl)-2-methylpiperidine-4-carboxamido)-3-methylcyclohexane-1-carboxylic acid]: the AC50 in data set [1] was 20 nM; in data set [2], 0.47 nM; in data set [4] it was 3 nM. The “Percent body weight change following first dose / tolerability” value in data set [3] is given as “well tolerated”. Besides, the “anti-tumor activity (tumor volume)” value in data set [3] (22 days, dose not given) is recorded as “regression”.

As for `CCc1c(C[C@H]2CC[C@H](OC3CCOCC3)CC2)c2ccc(F)cc2n1C(=O)N1CCC(C(=O)N[C@H]2CC[C@H](C(=O)O)C[C@@H]2C)(c2ccc(F)cc2)CC1` [Example 5, (1S,3S,4S)-4-(1-(2-ethyl-6-fluoro-3-(((1r,4S)-4-((tetrahydro-2H-pyran-4-yl)oxy)cyclohexyl)methyl)-1H-indole-1-carbonyl)-4-(4-fluorophenyl)piperidine-4-carboxamido)-3-methylcyclohexane-1-carboxylic acid], the AC50 turned out to be 66 nM in data set [1]; 0.7 nM in data set [2]; 24 nM in data set [4] (Homo sapiens, WM793, 72 h). Further, in data set [3], the “Percent body weight change following first dose / tolerability” value is reported as “well tolerated”. The “anti-tumor activity (tumor volume) with holiday break” value in data set [3] (50 mg/kg bid for 5 days with 2 day break) is reported as “tumor regression, which is maintained”. Also, the “anti-tumor activity (tumor volume)” value in data set [3] (50 mg/kg bid for 22 days) was “tumor regression”.

On to `CCO[C@H]1CC[C@H](Cc2c(C)n(C(=O)N3CCC(C(=O)N[C@H]4CC[C@H](C(=O)O)C[C@@H]4C)(c4ccc(F)cc4)CC3)c3cc(F)ccc23)CC1` [Example 7, (1S,3S,4S)-4-(1-(3-(((1r,4S)-4-ethoxycyclohexyl)methyl)-6-fluoro-2-methyl-1H-indole-1-carbonyl)-4-(4-fluorophenyl)piperidine-4-carboxamido)-3-methyl cyclohexane-1-carboxylic acid], for which the AC50 is 80 nM in data set [1]; 0.33 nM in data set [2]; 96 nM in data set [4] (Homo sapiens, WM793, 72 h).

For `Cc1c(C[C@H]2CC[C@H](OC3CCOCC3)CC2)c2ccc(F)cc2n1C(=O)N1CC[C@@](C(=O)N[C@H]2CC[C@H](C(=O)O)C[C@@H]2C)(c2ccc(F)cc2)C[C@@H]1C` [Example 9, (1S,3S,4S)-4-((2S,4S)-1-(6-fluoro-2-methyl-3-(((1r,4S)-4-((tetrahydro-2H-pyran-4-yl)oxy)cyclohexyl)methyl)-1H-indole-1-carbonyl)-4-(4-fluorophenyl)-2-methylpiperidine-4-carboxamido)-3-methylcyclohexane-1-carboxylic acid], the AC50 in data set [1] was determined as 26 nM; in data set [2], 0.44 nM; in data set [4] (Homo sapiens, WM793, 72 h) it was 5.9 nM.

For `CN1CC[C@@H](NC(=O)C2(c3ccc(F)cc3)CCN(C(=O)c3cn(CC4CCOCC4)c4ccc(Br)cc34)CC2)C1` [Example 11, (R)-1-(5-bromo-1-((tetrahydro-2H-pyran-4-yl)methyl)-1H-indole-3-carbonyl)-4-(4-fluorophenyl)-N-(1-methylpyrrolidin-3-yl)piperidine-4-carboxamide], the AC50 is 4900 nM in data set [1]; 18 nM in data set [2]; 2700 nM in data set [4] (Homo sapiens, WM793, 72 h).

Regarding `CN1CC[C@@H](NC(=O)C2(c3ccc(Cl)cc3)CCN(C(=O)c3c(C=O)n(CC4CCOCC4)c4ccc(Cl)cc34)CC2)C1` [Example 11b], the AC50 came out at 560 nM in data set [1]; 0.65 nM in data set [2]; 220 nM in data set [4] (Homo sapiens, WM793, 72 h).

As to `CC(C)O[C@H]1CC[C@H](Cn2c(C=O)c(C(=O)N3CCC(C(=O)N[C@H]4CC[C@H](C(=O)O)C[C@@H]4C)(c4ccc(F)cc4)CC3)c3cc(Cl)cnc32)CC1` [Example 11g], the AC50 in data set [1] amounted to 270 nM; in data set [2], 0.36 nM; in data set [4] (Homo sapiens, WM793, 72 h) it was 610 nM.

Turning to `CC(C)O[C@H]1CC[C@H](Cn2c(C=O)c(C(=O)N3CCC(C(=O)N[C@H]4CC[C@H](C(=O)O)C[C@@H]4C)(c4ccc(F)cc4)CC3)c3cc(Cl)ccc32)CC1` [Example 11h], the AC50 is 54 nM in data set [1]; less than 0.28 nM in data set [2]; 120 nM in data set [4] (Homo sapiens, WM793, 72 h).

`Cc1c(C(=O)N2CCC(C(=O)N[C@H]3CN(C)C[C@H]3F)(c3ccc(F)cc3)CC2)c2cc(Cl)ccc2n1CC1CCOCC1` [Example 12, 1-(5-chloro-2-methyl-1-((tetrahydro-2H-pyran-4-yl)methyl)-1H-indole-3-carbonyl)-N-((3S,4R)-4-fluoro-1-methylpyrrolidin-3-yl)-4-(4-fluorophenyl)piperidine-4-carboxamide]: the AC50 in data set [1] was determined as 350 nM; in data set [2], 1.3 nM; in data set [4] (Homo sapiens, WM793, 72 h), 270 nM.
